Experimental data reported in patent US6627623B2, “Inducing cell apoptosis and treating cancer using 1-O-acetylbritannilactone or 1,6-O,O-diacetylbritannilactone” (priority 2001, dated 2003).
“And” between values parts separate entries of the source, which are not always exact repeats. Equal entries are not always repeated.

How the values were obtained:
Bcl-2 [1] = assay: Bcl-2 phosphorylation in OVCAR ovarian cancer cells; assay type: cell-based
Procedure: (§1) Experiments were performed to determine the activity of two of the sesquiterpene compounds isolated from Inula britannica, OABL and OODABL, as cancer preventative agents. Using a Western blot technique, the ability of these compounds to phosphorylate Bcl-2 in cancer cells was examined. […] OODABL induced Bcl-2 phosphorylation at lower effective doses, 2.5 and 5 μM.
(§2) In two ovarian cancer cell lines, OVCAR and PA-1, similar results were seen. In OVCAR cells, OODABL induced Bcl-2 phosphorylation at a dose of 5 μM, while OABL induced Bcl-2 phosphorylation at a dose of 10 μM. In PA-1 cells, OODABL induced Bcl-2 phosphorylation at a dose of 5 μM, while OABL induced Bcl-2 phosphorylation at a dose of 10 μM.

Bcl-2 [2] = assay: Bcl-2 phosphorylation in a prostate cancer cell line; assay type: cell-based
Procedure: as §1
In a prostate cancer cell line, these compounds were also able to induce Bcl-2 phosphorylation. OODABL induced Bcl-2 phosphorylation at a dose of 5 μM while OABL induced Bcl-2 phosphorylation at a dose of 10 μM.

PARP = PARP cleavage (apoptosis indicator) by Western blot in PA-1 cells; assay type: cell-based; settings: 24 hours
Procedure: Using cleavage of PARP as an indicator of apoptosis, the compositions of the present invention were tested in PA-1 ovary cells. PARP is a 116 kD nuclear poly (ADP-ribose)polymerase that appears to be involved in DNA-repair, predominantly in response to environmental stress (Satoh, M. S. and T. Lindahl. 1992. Nature 356:356-358). PARP is important for cells to maintain their viability. Cleavage of PARP facilitates cellular disassembly and serves as a marker of cells undergoing apoptosis (Oliver, F. J. et al. 1998. J. Biol. Chem. 273:33533-33539). This protein can be cleaved by many ICE caspases to form a 85 kD protein in cells undergoing apoptosis. PA-1 cells were treated with OODABL for 24 hours. Cells were lysed and PARP cleavage was measured by Western Blot using a monoclonal antibody to PARP (Pharmingen, Inc., San Diego, Calif.). OABL induced PARP cleavage at doses of 10 and 20 μM, while OODABL induced PARP cleavage at a dose of 5 μM.

DU-145 cells = assay: MTT cell viability assay, DU-145; assay type: cell-based
Procedure: (§3) Cell viability was then assessed in a microculture tetrazolium/formazan assay (MTT; Scudiero, D. A. et al. 1988. Cancer Res. 48:4827-4833) using a variety of cell lines. Absorbance was measured at 550 nm and cell viability was expressed as the percentage of drug treated cells relative to that of controls. The IC50 was then defined as the concentration of drug that produced a 50% decrease in cell viability relative to controls. OODABL was first tested in a variety of cell lines. […] In NIH 3T3 (normal mouse fibroblasts) cells treated with various concentrations of OODABL (1, 10, 20 and 50 μM OODABL), cell viability was decreased in a dose-dependent manner with an IC50 of 50 μM.
(§4) OABL was then tested in some of these same cell lines. In MCF-7 cells, OABL was tested at doses of 0.3 nm, 3 nm, 30 nm, 300 nm, 3 μM, and 30 μM.

Bcl-2 [3] = assay: Bcl-2 phosphorylation in PA-1 ovarian cancer cells; assay type: cell-based; settings: PA-1 cells
Procedure: as §1, §2

Bcl-2 [4] = assay: Bcl-2 phosphorylation by Western blot in MCF-7 cells; assay type: cell-based; settings: MCF-7 breast cancer cells
Procedure: as §1

PA-1 cells = assay: MTT cell viability assay, PA-1; assay type: cell-based
Procedure: as §3, §4

Bcl-2 [5] = assay: Bcl-2 phosphorylation by Western blot in non-mutated BRK-4B-Bcl-2 cells; assay type: cell-based, rat; settings: 12 hours
Procedure: (§5) The level of Bcl-2 phosphorylation was then assessed in the non-mutated and mutated BRK-4B-Bcl-2 cells using a Western blot assay. Cells were initially treated for 12 hours with the test compound, OODABL (at concentrations of 10, 20, 30, 40, or 60 μM). Taxol was used as a positive control at a concentration of 5 μM. Cells were then lysed in ice cold radio-immune precipitation buffer with inhibitors. Equivalent amounts of proteins were electrophoresed by 12% dodecyl sulfate-polyacrylamide gel electrophoresis and transferred to nitrocellulose. Bcl-2 and phosphorylated Bcl-2 proteins were detected using a monoclonal Bcl-2 primary antibody and a secondary goat anti-mouse horseradish peroxidase conjugated antibody followed by enhanced chemiluminescence detection.

BRK-4B-Bcl-2 cells = assay: Clonogenic assay, BRK-4B-Bcl-2; assay type: cell-based, rat; settings: 15 days, read-out: IC50 clonogenic assay (colonies counted)
Procedure: (§6) Cell cytotoxicity was also assessed by a clonogenic assay. MCF-7 breast cells were treated with various concentrations of OODABL (625 nm, 1.25, 2.5, 5 and 10 μM) for 15 days and cells were then stained with methylene blue and colonies counted. […] PC-3 prostate cells were treated with various concentrations of OODABL (20 and 200 nm, and 2 and 20 μM) for 15 days and cells were then stained with methylene blue and colonies counted. The IC50 was in the range of 200 nm OODABL. RKO cells were treated with various concentrations of OODABL (20 and 200 nm, and 2 and 20 μM) for 15 days and cells were then stained with methylene blue and colonies counted. The IC50 was in the range of 20 μM OODABL. Baby rat kidney cells were transformed with E1A and transfected with the Bcl-2 gene to form BRK-4B-Bcl-2 cells. These cells were treated with various concentrations of OODABL (20 and 200 nm, and 2, 10 and 20 μM) for 15 days and cells were then stained with methylene blue and colonies counted. The IC50 was in the range of 200 nM OODABL. Baby rat kidney cells were transformed with E1A and transfected with Bcl-2 gene in which phosphorylation sites were mutated to form phosphomutant BRK-4B-Bcl-2 cells. These cells were treated with various concentrations of OODABL (20 and 200 nm, and 2 and 20 μM) for 15 days and cells were then stained with methylene blue and colonies counted. […]

MCF-7 cells = assay: MTT cell viability assay, MCF-7; assay type: cell-based
Procedure: as §3, §4

[6] = test system: Bcl-2 (phosphorylation sites mutated); assay: Bcl-2 phosphorylation by Western blot in mutated BRK-4B-Bcl-2 cells; assay type: cell-based; settings: mutated rat kidney cells, 12 hours
Procedure: as §5

[7] = test system: NIH 3T3 (normal mouse fibroblasts) cells; assay: MTT cell viability assay, NIH 3T3; assay type: cell-based
Procedure: as §3

[8] = test system: phosphomutant BRK-4B-Bcl-2 cells; assay: Clonogenic assay, phosphomutant BRK-4B-Bcl-2; assay type: cell-based, rat; settings: 15 days, read-out: IC50 clonogenic assay (colonies counted)
Procedure: as §6

RKO cells = assay: Clonogenic assay, RKO; assay type: cell-based; settings: 15 days, read-out: IC50 clonogenic assay (colonies counted)
Procedure: as §6

[9] = test system: microtubules (tubulin) in MCF-7 cells; assay: Microtubule indirect immunofluorescence in MCF-7 cells; assay type: cell-based; settings: 12 hours
Procedure: The effect of OODABL on microtubules was examined by indirect immunofluorescence of MCF-7 cells using an antibody to tubulin after 12 hours treatment with either a vehicle control, 10 μM paclitaxel (positive control), or 20 μM OODABL.

PC-3 prostate cells = assay: Clonogenic assay, PC-3; assay type: cell-based; settings: PC-3 cells, 15 days; read-out: IC50 clonogenic assay (colonies counted)
Procedure: as §6

HL-60 cells = assay: TUNEL assay (APO-BRDU flow cytometry), late apoptosis; assay type: cell-based; settings: 12 hours
Procedure: In a TUNEL assay, the effect of OODABL on late apoptosis was examined. HL-60 cells lines were subjected to flow cytometry analysis using APO-BRDU. Apoptosis was detected by incorporation of Br-dUTP using a fluorescein labeled anti-BrdU monoclonal antibody after treatment with a vehicle control, 1 μM camptothecin or 20 μM OODABL for 12 hours.

[10] = test system: breast cancer cell line T47D; assay: Cell cycle analysis by flow cytometry; assay type: cell-based; settings: T47D cells, 20 μM, compared to control cells
Procedure: The effect of OODABL on cell cycle was analyzed by flow cytometery using breast cancer cell lin T47D.

Question: Which “dose inducing Bcl-2 phosphorylation” value (Bcl-2 [1]) does the source give for `C=C1C(=O)OC2CC(C)=C(C(C)CCCOC(C)=O)C(O)C12` (stereo not drawn) [OABL, 1-O-acetylbritannilactone] here?
Answer: The value was 10 µM.

Question: What about the “dose inducing Bcl-2 phosphorylation” value (Bcl-2 [2]) of the same compound?
Answer: The value was 10 µM.

Question: What about the “dose inducing PARP cleavage” value (PARP) of the same compound?
Answer: Its value is 10 µM and 20 µM.

Question: And the “cell viability (MTT), result in words” value (DU-145 cells; Du-145 cells, 4.68-100 μM)?
Answer: The value was “decreased cell viability”.

Question: And the “dose inducing Bcl-2 phosphorylation” value (Bcl-2 [3])?
Answer: The value was 10 µM.

Question: And the “effective dose inducing Bcl-2 phosphorylation” value (Bcl-2 [4])?
Answer: The value was 10 µM and 20 µM.

Question: And the IC50 (PA-1 cells)?
Answer: Its IC50 is roughly 2 µM.

Question: `C=C1C(=O)OC2CC(C)=C(C(C)CCCOC(C)=O)C(OC(C)=O)C12` (stereo not drawn) [OODABL, 1,6-O,O-diacetylbritannilactone] was tested. Which “dose inducing Bcl-2 phosphorylation” value (Bcl-2 [1]) did it give?
Answer: The value was 5 µM.

Question: And the “level of Bcl-2 phosphorylation” value (Bcl-2 [5]; non-mutated cells, 10, 20, 30, 40, or 60 μM)?
Answer: Its value is “dose-dependent increase in Bcl-2 phosphorylation”.

Question: What about the IC50 (BRK-4B-Bcl-2 cells) of the same compound?
Answer: The IC50 was roughly 0.2 µM.

Question: And the “dose inducing Bcl-2 phosphorylation” value (Bcl-2 [2])?
Answer: The value was 5 µM.

Question: What about the IC50 (MCF-7 cells) of the same compound?
Answer: Its IC50 is less than 12.5 µM.

Question: And the “level of Bcl-2 phosphorylation” value ([6]; 10-60 μM)?
Answer: The value was “no phosphorylation evident”.

Question: And the “dose inducing PARP cleavage” value (PARP)?
Answer: Its value is 5 µM.

Question: And the IC50 [7]?
Answer: Its IC50 is 50 µM.

Question: And the IC50 (DU-145 cells; DU-145 cells)?
Answer: Its IC50 is less than 15.6 µM.

Question: And the IC50 [8]?
Answer: Its IC50 is roughly 2 µM.

Question: What about the IC50 (RKO cells) of the same compound?
Answer: Its IC50 is roughly 20 µM.

Question: And the “dose inducing Bcl-2 phosphorylation” value (Bcl-2 [3])?
Answer: Its value is 5 µM.

Question: And the effect on microtubules ([9]; 20 μM)?
Answer: Its effect on microtubules is “polymerized microtubules”.

Question: What about the IC50 (PC-3 prostate cells) of the same compound?
Answer: Its IC50 is roughly 0.2 µM.

Question: What about the “effective dose inducing Bcl-2 phosphorylation” value (Bcl-2 [4]) of the same compound?
Answer: The value was 2.5 µM and 5 µM.

Question: And the “late apoptosis (Br-dUTP incorporation)” value (HL-60 cells; 20 μM)?
Answer: Its value is “induce apoptosis”.

Question: What about the “effect on cell cycle” value [10] of the same compound?
Answer: The value was “arrested cells at the G2/M phase”.

Question: And the IC50 (PA-1 cells)?
Answer: The IC50 was less than 7.82 µM.

Question: `CC(=O)O[C@H]1C(=O)[C@@]2(C)[C@H]([C@H](OC(=O)c3ccccc3)[C@]3(O)C[C@H](OC(=O)[C@H](O)[C@@H](NC(=O)c4ccccc4)c4ccccc4)C(C)=C1C3(C)C)[C@]1(OC(C)=O)CO[C@@H]1C[C@@H]2O` [paclitaxel, reference compound] was tested. Which “level of Bcl-2 phosphorylation” value (Bcl-2 [5]; non-mutated cells, 5 μM, positive control) did it give?
Answer: Its value is “increased in protein phosphorylation”.

Question: What about the “level of Bcl-2 phosphorylation” value ([6]; 5 μM) of the same compound?
Answer: Its value is “no phosphorylation evident”.

Question: What about the effect on microtubules ([9]; 10 μM, positive control) of the same compound?
Answer: The effect on microtubules was “polymerized microtubules”.

Question: And the “effective dose inducing Bcl-2 phosphorylation” value (Bcl-2 [4])?
Answer: Its value is 100 µM.

Question: How did the “late apoptosis (Br-dUTP incorporation)” value (HL-60 cells; 1 μM, positive control) turn out when `CC[C@@]1(O)C(=O)OCc2c1cc1n(c2=O)Cc2cc3ccccc3nc2-1` [camptothecin, reference compound] was run?
Answer: Its value is “induce apoptosis”.
